The nature of the data set: Localization of ADR in brain tissue (inverted fluorescence microscope). It counts as in vivo. To be noted: mouse brain 3 hours after 20 mg/kg ADR i.p.; hydrochloride. On the procedure: Eight-week-old male B6C3 mice (25-30 g) were kept under standard conditions. The mice were injected in a single intraperitoneal (i.p.) dose of 20 mg/kg adriamycin (Doxorubicin hydrochloride, […] Sicor Phamaceuticals, Inc., Irvine, Calif.), or the same volume of saline as control for 3 hours. […] Controls consisted of anti-TNF α antibody alone, or saline in the same total volume. All results were obtained from at least three separate experiments. Mice were euthanized by the i.p. injection of 65 mg/kg of nembutal (Sodium pentobarbital, Abbott Laboratories, North Chicago, Ill.), and were perfused via cardiac puncture initially with 0.1 M phosphate buffered saline (PBS), pH 7.4, and subsequent fixation with 4% paraformaldehyde. […] The sections were prepared for immunohistochemistry and detection of ADR. ADR in brain tissue slices was directly visualized using an inverted fluorescence microscope, FIG. 1 (excitation filter 550 nm, and barrier filter 590 nm). Photomicrographs were taken with an Olympus MagnaFire digital camera (Olympus, America, Melville, N.Y.).

SMILES strings stand for the structures. Entries after “also recorded” stand apart in the source; their conditions may differ. Where a name gives a salt, the structure may show the parent alone.

Regarding `COc1cccc2c1C(=O)c1c(O)c3c(c(O)c1C2=O)C[C@@](O)(C(=O)CO)C[C@@H]3O[C@H]1C[C@H](N)[C@H](O)[C@H](C)O1` [ADR, Doxorubicin hydrochloride], the “ADR orange-red fluorescence in areas outside the blood brain barrier (choroid plexus)” value was “observed in several areas outside the blood brain barrier, including the choroid plexus; also recorded: apparent in the choroid plexus”; the “ADR orange-red fluorescence in cortex and hippocampus” value was “not observed in cortex and hippocampus; also recorded: not detected”.
